These results are taken from patent US20240116921A1, “LACTAM (HETERO)[…] DERIVATIVES AS INHIBITORS OF ERBB2” (EnLiven Therapeutics, Inc., priority 2020, published 2024).

Assay [1] concerns the target Ba/F3 ERBB2 A775_G776insYVMA (Homo sapiens, UniProt P04626, DUP772-775, cells depend on it). Put plainly: Cell viability assay, Ba/F3 ERBB2 A775_G776insYVMA. The class given is cell-based, mouse. The following applies: Ba/F3 ERBB2 YVMA cells, cell viability, 72 hours, CellTiter Glo; Table B5; read-out: Ba/F3 ERBB2 YVMA, IC50. As for the experimental part: Cells were treated with compounds, and cell viability was measured as a metric of kinase inhibition.
The Ba/F3 cell line is IL-3-dependent mouse cell line derived from the C3H mouse strain. Ba/F3 cell lines were engineered to express human ERBB2 or EGFR kinases, rendering the cells IL-3 independent. The lines were generated via retroviral transduction utilizing a Moloney murine leukemia virus (MMLV) promoter, and constructs are stably integrated into the cell genome. The sequences of the ERBB2 and EGFR genes used were NCBI Reference Sequences NM_004448.3 and NM_005228.3, respectively.
Similarly, Ba/F3 cell lines engineered to express EGFR, ERBB2, or ERBB2 mutants were grown, harvested, counted and seeded at 3000 cells per well in 96-well plates. A subset of wells contained media only (low control, “LC”).
Table B1 provides the growth media and number of cells seeded per well for the each cell line.
Plates were placed in a 37° C., 5% CO2 incubator for 72 hours. Plates were then removed from the incubator and equilibrated for 15 minutes at room temperature. 40 μl of CellTiter Glo reagent (Promega) was added to measure the relative level of metabolically active cells by quantifying intracellular ATP concentrations. Plates were incubated for 30 minutes at room temperature, and luminescence was measured. […] Graphical curves were fitted using a nonlinear regression model with a sigmoidal dose response.

Assay [2] addresses T1, phosphorylated EGFR (pEGFR) (Homo sapiens, UniProt P00533).
T1 construct: performed to measure phosphorylated EGFR levels using A431 cells (10% FBS); endogenous in cells; host or cells: A431
Put plainly: Detection of phosphorylated EGFR (pEGFR) in EGF-stimulated A431 cells. The class given is cell-based. As to conditions: A431 cells (10% FBS), 4 hours incubation, EGF 30 ng/mL 10 minutes, AlphaLISA. As for the experimental part:
Enzyme-linked immunosorbent assays (ELISA) were performed to measure phosphorylated EGFR levels using A431 cells (10% FBS). A431 (1.0*10^4 cells/40 μl/well) cells were seeded in 384 well. Compounds were dissolved in DMSO, serially diluted in DMSO and then were added, mixed, and incubated for 4 hours at 37° C., 5% CO2. Following the 4-hours incubation, cells were stimulated for 10 minutes with EGF (Invitrogen, cat #PHG0311) at a final concentration of 30 ng/mL in the incubator. The media was aspirated and cells were lysed in 10 μL lysis buffer with protease and phosphatase inhibitors (PerkinElmer, cat #ALSU-PEGFR-A50K). The plates were placed on a shaker for 5 minutes and then incubated for 30 min at 4° C. for complete lysis. The lysate was transferred to an Optiplate (Perkin Elmer, cat #6007290).
Acceptor mix (PerkinElmer, cat #ALSU-PEGFR-A50K) was prepared just before use and 5 μL was dispensed to all the wells, followed by a 1.5-2 h incubation at room temperature in dark. The donor mix (PerkinElmer, cat #ALSU-PEGFR-A50K) was prepared under low light conditions prior to use and […] of donor mix was added to all the wells under subdued lighting or green filters. The plates were placed on a shaker for 5 min, sealed, and incubated overnight at room temperature in dark. Plates were read on the Envision (PerkinElmer) using standard AlphaLISA settings.
The percentage of inhibition on EGFR phosphorylation was calculated following equation: % Inhibition=100×(LumHC−LumSample)/(LumHC−LumLC). The low and high controls (LC/HC) are generated from lysate from wells with cells treated with DMSO or […] Staurosporine (BioAustralis, cat #BIA-S1086), […]. IC50 values were calculated by fitting the Curve using XLfit (v5.3.1.3), equation 201: Y=Bottom+(Top−Bottom)/(1+10^((Log IC50−X)*HillSlope)).

Assay [3] addresses T2, phosphorylated ERBB2 (pERBB2) (Homo sapiens, UniProt P04626).
T2 construct: endogenous in cells; host or cells: BT-474
Put plainly: Detection of phosphorylated ERBB2 (pERBB2) by ELISA in BT-474 cells. It counts as cell-based. The following applies: four hours incubation. As for the experimental part: BT-474 cells were seeded into a 96-well at 2.0*10^4 cells/100 μl/well.
Compounds were dissolved and serially diluted in DMSO. The compounds were then were added, mixed, and incubated for four hours at 37° C., 5% CO2. Compounds were added using four-fold dilutions at final concentrations ranging from 10 μM to 0.01 nM.
Following the four hour incubation with compounds, cell lysates were prepared.
Plates were centrifuged for 5 min at 3000 RPM, and supernatant was removed from each well. Cells were washed 3 times by resuspension in 150 μl PBS, followed by centrifugation and removal of the supernatant, as above. […] Cells were incubated with lysis buffer for 1 hour at 4° C., and then stored at −80° C.
Enzyme-linked immunosorbent assays (ELISA) were performed to measure phosphorylated ERBB2 levels. […] The next day, plates were washed with PBS+0.05% Tween20 (PBST). 150 μl of 5% BSA blocking solution was added for 1 hour at room temperature, with shaking. Plates were washed with PBST. Cell lysates were thawed and 100 μl of lysate was added to the ELISA plate. The plates were incubated for 2 hours at room temperature, with shaking. […] Plates were incubated for 1 hour at room temperature, with shaking. Plates were then washed with PBST, and 100 μl TMB substrate solution (R&D Systems, cat #DY999) was added. Plate were incubated in the dark for 20 minutes at room temperature. 50 μl of Stop solution (R&D Systems, cat #DY994) (50 μl) was added to each well and mixed.
Optical density at 450 nm was read on an EnSpire plate reader (Perkin Elmer). The remaining kinase activity by calculated using the following formula: % Relative activity=100×(A450sample−A450LC)/(A450HC−A450LC). The low and high control values (“LC” and “HC”) were generated from lysate from wells without cells or with cells treated with 0.1% DMSO, respectively.

Each structure is given as a SMILES string. pIC50: −log10 of the molar value. Counter-ions that a name gives are not always drawn.

Chain of Ba/F3 ERBB2 A775_G776insYVMA (P04626 with tags, fused parts or gaps DUP772-775): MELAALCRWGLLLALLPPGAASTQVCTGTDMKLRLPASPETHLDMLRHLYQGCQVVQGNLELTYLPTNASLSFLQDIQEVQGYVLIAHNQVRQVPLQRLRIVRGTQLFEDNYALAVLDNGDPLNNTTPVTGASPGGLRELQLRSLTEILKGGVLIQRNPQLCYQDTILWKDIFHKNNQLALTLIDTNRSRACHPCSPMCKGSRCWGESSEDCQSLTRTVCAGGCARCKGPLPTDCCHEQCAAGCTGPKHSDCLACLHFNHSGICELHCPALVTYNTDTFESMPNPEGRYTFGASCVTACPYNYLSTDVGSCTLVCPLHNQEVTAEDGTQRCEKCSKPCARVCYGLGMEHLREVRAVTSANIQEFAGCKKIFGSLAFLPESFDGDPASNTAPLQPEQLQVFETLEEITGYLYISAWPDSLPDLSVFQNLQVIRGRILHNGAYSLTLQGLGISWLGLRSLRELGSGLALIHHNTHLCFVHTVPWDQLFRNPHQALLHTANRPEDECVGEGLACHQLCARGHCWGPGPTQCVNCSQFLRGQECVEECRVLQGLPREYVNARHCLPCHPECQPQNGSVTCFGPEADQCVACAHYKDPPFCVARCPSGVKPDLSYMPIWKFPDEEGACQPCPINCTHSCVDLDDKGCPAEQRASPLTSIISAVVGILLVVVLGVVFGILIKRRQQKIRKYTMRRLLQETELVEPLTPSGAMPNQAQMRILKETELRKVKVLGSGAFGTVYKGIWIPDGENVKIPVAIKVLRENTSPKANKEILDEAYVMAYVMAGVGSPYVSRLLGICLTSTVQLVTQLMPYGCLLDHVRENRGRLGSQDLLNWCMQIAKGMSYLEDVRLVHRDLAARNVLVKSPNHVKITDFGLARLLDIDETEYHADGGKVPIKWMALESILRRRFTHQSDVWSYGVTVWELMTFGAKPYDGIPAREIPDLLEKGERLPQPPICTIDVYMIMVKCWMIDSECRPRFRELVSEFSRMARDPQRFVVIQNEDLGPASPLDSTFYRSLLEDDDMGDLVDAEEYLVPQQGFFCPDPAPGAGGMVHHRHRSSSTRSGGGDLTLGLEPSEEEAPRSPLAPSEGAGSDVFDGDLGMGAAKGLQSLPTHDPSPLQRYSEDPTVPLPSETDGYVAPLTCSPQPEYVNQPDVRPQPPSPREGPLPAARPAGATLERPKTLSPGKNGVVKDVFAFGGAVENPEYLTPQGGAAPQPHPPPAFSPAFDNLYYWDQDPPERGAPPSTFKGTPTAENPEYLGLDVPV
T1 sequence (P00533 25-1210): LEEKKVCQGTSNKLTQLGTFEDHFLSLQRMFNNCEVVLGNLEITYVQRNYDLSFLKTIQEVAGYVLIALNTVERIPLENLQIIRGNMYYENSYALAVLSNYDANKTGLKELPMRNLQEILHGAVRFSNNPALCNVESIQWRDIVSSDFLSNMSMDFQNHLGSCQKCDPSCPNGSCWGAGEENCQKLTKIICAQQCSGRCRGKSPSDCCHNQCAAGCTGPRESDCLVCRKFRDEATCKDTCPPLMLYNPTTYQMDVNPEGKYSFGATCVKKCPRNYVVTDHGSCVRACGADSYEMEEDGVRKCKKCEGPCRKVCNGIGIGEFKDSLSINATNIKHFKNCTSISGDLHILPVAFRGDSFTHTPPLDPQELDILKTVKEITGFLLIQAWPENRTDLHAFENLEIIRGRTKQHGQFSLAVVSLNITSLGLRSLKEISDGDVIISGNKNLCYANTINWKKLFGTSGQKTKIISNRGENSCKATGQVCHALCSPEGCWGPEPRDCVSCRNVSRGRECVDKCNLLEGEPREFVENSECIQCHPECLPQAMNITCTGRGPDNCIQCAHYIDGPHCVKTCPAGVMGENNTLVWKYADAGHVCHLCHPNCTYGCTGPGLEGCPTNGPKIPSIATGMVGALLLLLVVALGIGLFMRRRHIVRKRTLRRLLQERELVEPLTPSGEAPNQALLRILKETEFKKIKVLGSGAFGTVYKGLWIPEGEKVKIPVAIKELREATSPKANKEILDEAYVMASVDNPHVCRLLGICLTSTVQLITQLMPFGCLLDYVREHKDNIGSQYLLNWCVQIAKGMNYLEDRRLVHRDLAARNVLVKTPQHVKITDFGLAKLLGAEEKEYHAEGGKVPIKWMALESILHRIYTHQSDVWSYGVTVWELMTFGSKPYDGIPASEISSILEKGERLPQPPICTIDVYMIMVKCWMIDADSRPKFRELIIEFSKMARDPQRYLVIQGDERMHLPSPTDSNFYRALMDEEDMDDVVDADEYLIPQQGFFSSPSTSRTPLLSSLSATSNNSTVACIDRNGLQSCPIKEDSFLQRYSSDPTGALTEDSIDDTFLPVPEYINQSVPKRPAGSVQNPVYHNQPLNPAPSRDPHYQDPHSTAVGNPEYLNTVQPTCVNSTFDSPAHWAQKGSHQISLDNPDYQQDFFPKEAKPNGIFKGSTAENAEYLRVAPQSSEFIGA
T2 sequence (P04626 23-1255): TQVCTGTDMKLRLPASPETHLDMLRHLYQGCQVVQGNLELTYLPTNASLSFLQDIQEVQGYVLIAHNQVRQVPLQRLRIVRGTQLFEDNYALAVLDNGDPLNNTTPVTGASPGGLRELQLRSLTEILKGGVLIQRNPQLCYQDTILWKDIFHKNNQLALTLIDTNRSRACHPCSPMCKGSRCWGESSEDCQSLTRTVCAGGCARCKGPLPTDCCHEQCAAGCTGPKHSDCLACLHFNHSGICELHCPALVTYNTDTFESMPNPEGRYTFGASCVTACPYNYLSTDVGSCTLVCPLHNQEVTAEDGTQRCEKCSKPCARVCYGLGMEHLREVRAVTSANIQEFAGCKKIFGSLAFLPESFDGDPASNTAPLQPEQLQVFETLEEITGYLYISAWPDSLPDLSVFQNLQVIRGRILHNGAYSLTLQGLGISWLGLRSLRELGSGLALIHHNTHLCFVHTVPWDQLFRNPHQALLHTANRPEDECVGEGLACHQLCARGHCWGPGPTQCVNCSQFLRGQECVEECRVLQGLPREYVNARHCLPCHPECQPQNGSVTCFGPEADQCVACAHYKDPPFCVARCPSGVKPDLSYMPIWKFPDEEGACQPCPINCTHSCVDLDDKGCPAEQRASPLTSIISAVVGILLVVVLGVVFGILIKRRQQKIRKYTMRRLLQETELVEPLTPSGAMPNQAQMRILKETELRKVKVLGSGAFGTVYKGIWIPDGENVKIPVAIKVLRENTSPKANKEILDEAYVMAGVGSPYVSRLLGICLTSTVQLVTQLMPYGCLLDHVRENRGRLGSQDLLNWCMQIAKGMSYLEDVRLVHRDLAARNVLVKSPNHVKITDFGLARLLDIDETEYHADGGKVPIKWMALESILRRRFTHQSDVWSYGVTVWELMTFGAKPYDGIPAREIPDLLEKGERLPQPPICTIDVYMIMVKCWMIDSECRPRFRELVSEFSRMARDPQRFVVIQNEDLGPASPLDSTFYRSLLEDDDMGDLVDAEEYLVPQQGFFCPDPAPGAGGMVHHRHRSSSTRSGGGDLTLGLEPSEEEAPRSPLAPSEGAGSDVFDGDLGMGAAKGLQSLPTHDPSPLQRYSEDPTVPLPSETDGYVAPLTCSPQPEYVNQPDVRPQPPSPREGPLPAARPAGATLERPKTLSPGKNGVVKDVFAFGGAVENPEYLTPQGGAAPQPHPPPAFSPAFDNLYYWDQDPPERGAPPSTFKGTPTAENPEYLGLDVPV

For `C=C1C(=O)N(c2cc3c(Nc4ccc(Oc5ccn6ncnc6c5)c(C)c4)ncnc3cn2)C2CC12` (single isomer, unassigned; enantiomer 2) [Example S40, Enantiomer # 2, 2-{4-[(3-methyl-4-{[1,2,4]triazolo[1,5-a]pyridin-7-yloxy}phenyl)amino]pyrido[3,4-d]pyrimidin-6-yl}-4-methylidene-2-azabicyclo[3.1.0]hexan-3-one Enantiomer 2], the GI50 in assay [1] was determined as 68.1 nM. The pIC50 (as a rule, the IC50 on a negative log10 scale, so that one unit is a factor of ten) in assay [2] is 5.19; in assay [3] it was 7.45.
`Cc1cc(Nc2ncnc3ccc(N4CC/C(=C\CN(C)C)C4=O)nc23)ccc1Oc1cccnc1` [Compound 62, (3E)-3-[2-(dimethylamino)ethylidene]-1-(4-{[3-methyl-4-(pyridin-3-yloxy)phenyl]amino}pyrido[3,2-d]pyrimidin-6-yl)pyrrolidin-2-one]: the GI50 in assay [1] amounted to 4.36 nM. Further, the negative-log IC50 (pIC50) is 6.67 in assay [2] and 7.62 in assay [3].
Consider `Cc1cc(Nc2ncnc3cnc(N4CC/C(=C\CN(C)C)C4=O)cc23)ccc1Oc1ccn2ncnc2c1` [Compound 74, (3E)-3-[2-(dimethylamino)ethylidene]-1-{4-[(3-methyl-4-{[1,2,4]triazolo[1,5-a]pyridin-7-yloxy}phenyl)amino]pyrido[3,4-d]pyrimidin-6-yl}pyrrolidin-2-one], for which the GI50 in assay [1] came out at 5.17 nM. In addition, the pIC50 in assay [2] was 5.53; in assay [3] it was 8.27.
As to `Cc1cc(Nc2ncnc3ccc(N4CC/C(=C\CCN(C)C)C4=O)nc23)ccc1Oc1ccn2ncnc2c1` [Compound 48, (3E)-3-[3-(dimethylamino)propylidene]-1-{4-[(3-methyl-4-{[1,2,4]triazolo[1,5-a]pyridin-7-yloxy}phenyl)amino]pyrido[3,2-d]pyrimidin-6-yl}pyrrolidin-2-one], the GI50 in assay [1] came to 0.837 nM. Also, the negative logarithm of the IC50 (pIC50) in assay [2] was 7.20; in assay [3] it was 7.91.
In the case of `CN(C)C/C=C1\CCN(c2ccc3ncnc(Nc4ccc(Oc5ccn6ncnc6c5)cc4F)c3n2)C1=O` [Compound 156, (E)-1-(4-((4-([1,2,4]triazolo[1,5-a]pyridin-7-yloxy)-2-fluorophenyl)amino)pyrido[3,2-d]pyrimidin-6-yl)-3-(2-(dimethylamino)ethylidene)pyrrolidin-2-one], the GI50 in assay [1] was 23.3 nM. Moreover, the values for the negative-log IC50 (pIC50) in assay [2] and in assay [3] were 5.11 and 7.66, respectively.
Take `Cc1cc(Nc2ncnc3ccc(N4CC/C(=C\CN(C)C)C4=O)nc23)ccc1Oc1ccn2c(C)cnc2c1` [Compound 81, (E)-3-(2-(dimethylamino)ethylidene)-1-(4-((3-methyl-4-((3-methylimidazo[1,2-a]pyridin-7-yl)oxy)phenyl)amino)pyrido[3,2-d]pyrimidin-6-yl)pyrrolidin-2-one]: the GI50 in assay [1] amounted to 3.86 nM. Also, the pIC50 in assay [2] was 5.95; in assay [3], 7.14.
For `CN(C)C/C=C1\CCN(c2ccc3ncnc(Nc4ccc(Oc5cccnc5)c(F)c4)c3n2)C1=O` [Compound 126, (3E)-3-[2-(dimethylamino)ethylidene]-1-(4-{[3-fluoro-4-(pyridin-3-yloxy)phenyl]amino}pyrido[3,2-d]pyrimidin-6-yl)pyrrolidin-2-one], the GI50 in assay [1] came out at 34 nM. Further, the negative logarithm of the IC50 (pIC50) in assay [2] is 5.95; in assay [3], 7.00.
In the same order, the values of `C=C1C(=O)N(c2ccc3ncnc(Nc4ccc(Oc5ccc6c(c5)ncn6C)c(C)c4)c3c2)C[C@H]1C` [Compound 37, (S)-4-methyl-1-(4-((3-methyl-4-((1-methyl-1H-benzo [d]imidazol-5-yl)oxy)phenyl)amino)quinazolin-6-yl)-3-methylenepyrrolidin-2-one] are 17.4 nM, 5.99 and 7.57.
For the compound `C=C1CCN(c2ccc3ncnc(Nc4ccc(Oc5ccc6cncnc6c5)c(C)c4)c3c2)C1=O` [Compound 50, 1-(4-{[3-methyl-4-(quinazolin-7-yloxy)phenyl]amino}quinazolin-6-yl)-3-methylidenepyrrolidin-2-one], the GI50 in assay [1] turned out to be 46.4 nM. The negative-log IC50 (pIC50) in assay [2] was 5.67; in assay [3] it was 7.10.
In the same order, the values of `Cc1cc(Nc2ncnc3ccc(N4CC/C(=C\CN(C)C)C4=O)nc23)c(F)cc1Oc1ccn2ncnc2c1` [Compound 79, (3E)-3-[2-(dimethylamino)ethylidene]-1-{4-[(2-fluoro-5-methyl-4-{[1,2,4]triazolo[1,5-a]pyridin-7-yloxy}phenyl)amino]pyrido[3,2-d]pyrimidin-6-yl}pyrrolidin-2-one] are 2.92 nM, under 5.00 and 8.06.
For the compound `Cc1cc(Nc2ncnc3ccc(N4CC(C)/C(=C\CN(C)C)C4=O)nc23)ccc1Oc1ccc2c(c1)ncn2C` (single isomer, unassigned; enantiomer 2) [Example S58, Enantiomer # 2, (3E)-3-[2-(dimethylamino)ethylidene]-4-methyl-1-[4-({3-methyl-4-[(1-methyl-1,3-benzodiazol-5-yl)oxy]phenyl}amino)pyrido[3,2-d]pyrimidin-6-yl]pyrrolidin-2-one hydrochloride Enantiomer 2], the GI50 in assay [1] was 13.3 nM. Also, the results for the negative-log IC50 (pIC50) in assay [2] and in assay [3] were under 5.00 and 7.35, respectively.
As to `Cc1cc(Nc2ncnc3cnc(N4CC/C(=C\C5CN(C)C5)C4=O)cc23)c(F)cc1Oc1ccn2ncnc2c1` [Compound 138, (3E)-1-{4-[(2-fluoro-5-methyl-4-{[1,2,4]triazolo[1,5-a]pyridin-7-yloxy}phenyl)amino]pyrido[3,4-d]pyrimidin-6-yl}-3-[(1-methylazetidin-3-yl)methylidene]pyrrolidin-2-one], the GI50 in assay [1] came to 99.6 nM. For the same compound, the pIC50 in assay [2] was under 5.00; in assay [3], 7.77.
In the same order, the values of `CC1CN(c2cc3c(Nc4ccc(Oc5ccc6c(c5)nnn6C)cc4)ncnc3cn2)C(=O)/C1=C/CN(C)C` (single isomer, unassigned) [Compound 137] are 473 nM, under 5.00 and 5.39.
